{"source": "patent US7829542B2", "about": "“Prophylactic and therapeutic treatment of infectious and other diseases with immunoeffector compounds” (Corixa Corporation, priority 2002, dated 2010)", "key": {"Influenza A/HK/68": {"tested_on": "Influenza A/HK/68", "assay": "Protection against lethal influenza challenge by prophylactic administration", "format": "in vivo, BALB/c mice", "details": "20 μg intranasally 48 hours prior to lethal intranasal challenge (5 LD50)", "description": "This example provides experiments evaluating protection against a lethal challenge with influenza in cyclic AGP-treated mice. BALB/c mice (10 mice per group) were treated intranasally with 20 μg of the compounds of examples 1, 2 and 3, or with MPL, 48 hours prior to an lethal intranasal challenge of Influenza A/HK/68 (5 LD50). Protection was judged by survival, observations of clinical symptoms (ruffled fur, hunched posture and labored breathing), and prevention of weight loss for 21 days following the challenge."}, "[1]": {"tested_on": "L. monocytogenes 10403 serotype", "assay": "Murine Listeria monocytogenes challenge model (induction of non-specific resistance)", "format": "in vivo, mice", "details": "1 μg intravenously in 0.2% TEOA, i.v. challenge with ~10^5 L. monocytogenes two days later, spleen CFUs two days after challenge", "description": "This example provides experiments evaluating the induction of non-specific resistance in the murine Listeria monocytogenes challenge model performed using the compounds prepared in examples 1, 2 and 3. Mice (5 per group) were treated intravenously with the 1 μg of a cyclic AGP or MPL solublized in 0.2% triethanolamine (TEOA). Two days later the mice were challenged intravenously with a ˜10^5 L. monocytogenes 10403 serotype (stock culture provided by Jory Baldridge, Washington State University, Pullman, Wash.). Two days after the challenge the mice were sacrificed and the number of colony forming units (CFUs) in the spleens of individual mice were determined by plating 10-fold serial dilutions of splenic homogenates on tryptic soy agar plates. The degree of protection afforded by a given AGP or MPL was calculated by subtracting the average number of bacteria per spleen (log 10 value) in the group of mice treated with a given compound, from the average number of bacteria per spleen (log 10 value) in a control group that was “sham” treated with vehicle (0.2% TEOA) prior to challenge with L. monocytogenes."}}}
{"compound": "CCCCCCCCCCCC(=O)O[C@H](CCCCCCCCCCC)CC(=O)N[C@H]1[C@H](OC[C@@H]2CCCN2C(=O)C[C@@H](CCCCCCCCCCC)OC(=O)CCCCCCCCCCC)O[C@H](CO)[C@@H](OP(=O)(O)O)[C@@H]1OC(=O)C[C@@H](CCCCCCCCCCC)OC(=O)CCCCCCCCCCC.CCN(CC)CC", "note": "[Example 2, N-[(R)-3-Dodecanoyloxytetradecanoyl]-(S)-2-pyrrolidinylmethyl 2-Deoxy-4-O-phosphono-2-[(R)-3-dodecanoyloxy-tetradecanoylamino]-3-O-[(R)-3-dodecanoyloxytetradecanoyl]-β-D-glucopyranoside Triethylammonium Salt]", "values": [{"measurement": "protection compared with the vehicle control (in words)", "setting": "Influenza A/HK/68", "value": "enhanced protection"}, {"measurement": "survival rate", "setting": "Influenza A/HK/68; followed for 21 days", "value": 40, "unit": "%"}, {"measurement": "degree of protection: average bacteria per spleen (log 10) in the vehicle control group minus that in the treated group", "setting": "[1]", "value": 0.7, "unit": "log 10 units"}]}
{"compound": "CCCCCCCCCCC[C@H](CC(=O)N[C@H]1[C@H](OC[C@@H]2CCCN2C(=O)C[C@@H](CCCCCCCCCCC)OC(=O)CCCCCCCCC)O[C@H](CO)[C@@H](OP(=O)(O)O)[C@@H]1OC(=O)C[C@@H](CCCCCCCCCCC)OC(=O)CCCCCCCCC)OC(=O)CCCCCCCCC.CCN(CC)CC", "note": "[Example 3, N-[(R)-3-Decanoyloxytetradecanoyl]-(S)-2-pyrrolidinylmethyl 2-Deoxy-4-O-phosphono-2-[(R)-3-Decanoyloxytetradecanoylamino]-3-O-[(R)-3-Decanoyloxytetradecanoyl]-β-D-glucopyranoside Triethylammonium Salt]", "values": [{"measurement": "protection compared with the vehicle control (in words)", "setting": "Influenza A/HK/68", "value": "enhanced protection"}, {"measurement": "survival rate", "setting": "Influenza A/HK/68; followed for 21 days", "value": 60, "unit": "%"}, {"measurement": "degree of protection: average bacteria per spleen (log 10) in the vehicle control group minus that in the treated group", "setting": "[1]", "value": "~0.9", "unit": "log 10 units"}]}
{"compound": "N-[(R)-3-Tetradecanoyloxytetradecanoyl]-(S)-2-pyrrolidinylmethyl 2-Deoxy-4-O-phosphono-2-[(R)-3-tetradecanoyloxytetradecanoylamino]-3-O-[(R)-3-tetradecanoyloxytetradecanoyl]-β-D-glucopyranoside Triethylammonium Salt [Example 1]", "values": [{"measurement": "survival (in words)", "setting": "Influenza A/HK/68; followed for 21 days", "value": "No mice treated with the compound of example 1 survived"}, {"measurement": "degree of protection: average bacteria per spleen (log 10) in the vehicle control group minus that in the treated group", "setting": "[1]", "value": 0.2, "unit": "log 10 units"}]}
